Source: patent publication US7514452B2, “2-furancarboxylic acid hydrazides and pharmaceutical compositions containing the same” (Dainippon Pharmaceutical Co., Ltd, priority 2002, dated 2009)

Molecular target: glucagon receptor (Mus musculus, UniProt Q61606)
Test: Experiment for glucagon binding inhibition, mouse hepatic membrane (125I-glucagon)
Details: male ddY mouse hepatic membrane, 125I-glucagon 50 pM, 25° C. for 30 minutes; read-out: Glucagon binding inhibitory activity IC50 (nM) Mouse
Experimental: (§1) The preparation of membrane from mouse and rat livers was carried out according to the method described in Bioorg. Med. Chem. Lett. 1992, 12, 915-918 in this experiment and ^125I-glucagon binding activity was measured with these membranes as glucagon receptor's samples. Livers were removed from male SD rats (about 250 g body weight per rat) and male ddY mice (about 30 g body weight per mouse). […] The homogenate was centrifuged for 15 minutes at 30,000×g. […] The precipitaion thus obtained was used as a hepatic membrane sample. […] The mixture was incubated at 25° C. for 30 minutes. […] The filter was washed 3 times with 50 mM Tris-HCl buffer (pH 7.2), and the radioactivity of the filter was measured by a γ counter (ARC-360, Aloka Co., Ltd.). […] Each experiment was carried out in duplicate. […] The concentration at 50% inhibition of binding (IC50) was calculated using a pseudo Hill plot.

Chain of glucagon receptor (Mus musculus, UniProt Q61606) (Q61606 27-485): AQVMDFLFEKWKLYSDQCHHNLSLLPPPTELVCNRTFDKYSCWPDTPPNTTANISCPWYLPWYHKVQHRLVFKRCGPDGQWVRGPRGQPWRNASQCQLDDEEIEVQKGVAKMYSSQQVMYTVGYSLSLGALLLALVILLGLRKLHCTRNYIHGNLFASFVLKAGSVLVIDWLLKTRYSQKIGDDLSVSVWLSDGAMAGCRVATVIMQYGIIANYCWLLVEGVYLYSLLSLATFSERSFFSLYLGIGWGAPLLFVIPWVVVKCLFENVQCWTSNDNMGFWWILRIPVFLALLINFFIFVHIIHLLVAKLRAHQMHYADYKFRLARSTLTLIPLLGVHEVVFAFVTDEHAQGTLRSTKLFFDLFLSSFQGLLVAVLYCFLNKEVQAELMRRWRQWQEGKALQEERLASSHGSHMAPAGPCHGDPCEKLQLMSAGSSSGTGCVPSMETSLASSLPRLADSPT

`CS(=O)(=O)Nc1ccccc1COc1cccc(-c2ccoc2C(=O)NNC(=O)c2ccc(O)c([N+](=O)[O-])c2)c1` [Example 138, 3-[3-(2-Methylsulfonylaminobenzyloxy)phenyl]-2-furancarboxylic acid 2-(4-hydroxy-3-nitrobenzoyl)hydrazide] and `CC(=O)Nc1ccccc1COc1cccc(-c2ccoc2C(=O)NNC(=O)c2ccc(O)c([N+](=O)[O-])c2)c1` [Example 179, 3-[3-(2-Acetylaminobenzyloxy)phenyl]-2-furancarboxylic acid 2-(4-hydroxy-3-nitrobenzoyl)hydrazide] are within 1.5-fold of each other in IC50: 23 nM for the first, 28 nM for the second.

Molecular target: glucagon receptor (Rattus norvegicus, UniProt P30082)
Sequence (P30082 27-485): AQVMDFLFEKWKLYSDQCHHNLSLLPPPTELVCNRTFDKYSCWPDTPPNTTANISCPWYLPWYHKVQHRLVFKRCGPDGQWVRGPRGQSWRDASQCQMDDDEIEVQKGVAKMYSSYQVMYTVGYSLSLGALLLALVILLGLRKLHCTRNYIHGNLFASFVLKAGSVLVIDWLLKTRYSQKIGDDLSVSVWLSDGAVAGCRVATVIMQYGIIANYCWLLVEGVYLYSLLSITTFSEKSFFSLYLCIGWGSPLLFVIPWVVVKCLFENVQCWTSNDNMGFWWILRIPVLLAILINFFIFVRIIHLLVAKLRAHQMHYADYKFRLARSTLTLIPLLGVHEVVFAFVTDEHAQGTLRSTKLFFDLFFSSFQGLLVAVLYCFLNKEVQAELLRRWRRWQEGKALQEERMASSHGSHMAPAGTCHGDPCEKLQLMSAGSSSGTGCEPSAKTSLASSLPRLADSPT
Test: Experiment for glucagon binding inhibition, rat hepatic membrane (125I-glucagon)
Details: male SD rat hepatic membrane, 125I-glucagon 50 pM, 25° C. for 30 minutes; read-out: Glucagon binding inhibitory activity IC50 (nM) Rat
Experimental: as §1

Compared with `CS(=O)(=O)Nc1ccccc1COc1cccc(-c2ccoc2C(=O)NNC(=O)c2ccc(O)c([N+](=O)[O-])c2)c1` [Example 138, 3-[3-(2-Methylsulfonylaminobenzyloxy)phenyl]-2-furancarboxylic acid 2-(4-hydroxy-3-nitrobenzoyl)hydrazide], `CC(=O)Nc1ccccc1COc1cccc(-c2ccoc2C(=O)NNC(=O)c2ccc(O)c([N+](=O)[O-])c2)c1` [Example 179, 3-[3-(2-Acetylaminobenzyloxy)phenyl]-2-furancarboxylic acid 2-(4-hydroxy-3-nitrobenzoyl)hydrazide] is 4.2-fold higher in IC50: 15 nM for the first, 63 nM for the second.

System: not given
Test: not given
Details: not given

Compared with `CC(=O)N(Cc1ccccc1)c1cccc(-c2ccoc2C(=O)NNC(=O)c2ccc(O)c(C#N)c2)c1`, `N#Cc1cc(C(=O)NNC(=O)c2occc2-c2cccc(NC(=O)OCc3ccccc3)c2)ccc1O` is lower in melting point: 221 to 222 °C for the first, 179 to 181 °C for the second.

Compared with `O=C(NNC(=O)c1occc1-c1ccncc1)c1ccc(O)c([N+](=O)[O-])c1`, `CS(=O)(=O)Oc1cccc(-c2ccoc2C(=O)NNC(=O)c2ccc(O)c([N+](=O)[O-])c2)c1` is lower in melting point: 237 °C for the first, 170 to 171 °C for the second.

First: Cc1cc(C)c(C)c(COc2cccc(-c3coc(C(=O)NNC(=O)c4ccc(O)c([N+](=O)[O-])c4)c3-c3cccc(OCc4c(C)c(C)cc(C)c4C)c3)c2)c1C
Second: COc1ccc(C(=O)NNC(=O)c2occ(-c3ccccc3)c2-c2ccccc2)cc1[N+](=O)[O-]
The melting point of the first is higher: 174 to 175 °C for the first, 150 to 158 °C for the second.

First: COc1ccc(C(=O)NNC(=O)c2occ(-c3ccccc3)c2-c2ccccc2)cc1C#N
Second: COc1ccc(C(=O)NNC(=O)c2occ(-c3ccccc3)c2-c2ccccc2)cc1Cl
The melting point of the first is higher: 220 to 225 °C for the first, 203 to 207 °C for the second.

First: Cc1ccccc1COc1cccc(-c2ccoc2C(=O)NNC(=O)c2ccc(O)c(C#N)c2)c1
Second: CCc1c(-c2ccccc2)coc1C(=O)NNC(=O)c1ccc(O)c(C#N)c1
The melting point of the first is lower: 178 to 180 °C for the first, 190 to 192 °C for the second.

First: CC(C)(C)OC(=O)c1cc(C(=O)NNC(=O)c2occc2-c2ccccc2)ccc1O
Second: O=C(NNC(=O)c1occc1-c1ccccc1)c1ccc(O)c(C(=O)O)c1
The melting point of the first is lower: 147 to 154 °C for the first, 250 to 251 °C for the second.

Compared with `O=C(NNC(=O)c1occ(-c2ccccc2)c1-c1ccccc1)c1cccs1`, `O=C(NNC(=O)c1occ(-c2ccccc2)c1-c1ccccc1)c1ccncc1` is lower in melting point: 132 to 135 °C for the first, 115 to 120 °C for the second.

First: Cc1ccc(-c2ccoc2C(=O)NNC(=O)c2ccc(O)c(Cl)c2)cc1
Second: O=C(NNC(=O)c1occ(-c2ccccc2)c1-c1ccccc1)c1ccc(O)c(Cl)c1
The melting point of the first is higher: 240 to 242 °C for the first, 197 to 199 °C for the second.

First: O=C(NNC(=O)c1occ(-c2ccccc2)c1-c1ccccc1)c1ccccn1
Second: O=C(NNC(=O)c1occ(-c2ccccc2)c1-c1ccccc1)c1ccc(O)c(O)c1
The melting point of the first is lower: 190 to 192 °C for the first, 242 to 244 °C for the second.

First: C=Cc1coc(C(=O)NNC(=O)c2ccc(O)c(C#N)c2)c1-c1ccccc1
Second: CCc1coc(C(=O)NNC(=O)c2ccc(O)c(C#N)c2)c1-c1ccccc1
The melting point of the first is lower: 175 to 177 °C for the first, 186 to 188 °C for the second.

First: COc1ccc(C(=O)NNC(=O)c2occ(-c3ccccc3)c2-c2ccccc2)cc1OC
Second: COc1ccc(C(=O)NNC(=O)c2occ(-c3ccccc3)c2-c2ccccc2)c(OC)c1
The melting point of the first is lower: 181 to 184 °C for the first, 240 to 242 °C for the second.

First: COc1c(Cl)cc(C(=O)NNC(=O)c2occ(-c3ccccc3)c2-c2ccccc2)cc1Cl
Second: O=C(NNC(=O)c1occ(-c2ccccc2)c1-c1ccccc1)c1cc(Cl)c(O)c(Cl)c1
The melting point of the first is lower: 229 to 230 °C for the first, 261 to 263 °C for the second.

First: O=C(NNC(=O)c1occ(-c2ccccc2)c1-c1ccccc1)c1ccc(O)cc1O
Second: O=C(NNC(=O)c1occ(-c2ccccc2)c1-c1ccccc1)c1ccc(O)c(-c2ccccc2)c1
The melting point of the first is higher: 285 to 288 °C for the first, 217 to 218 °C for the second.
